# Experimental data: ChEMBL document CHEMBL3045223, “Synthesis, nematicidal and antimicrobial properties of Bis-[4-methoxy-3-[3-(4-fluorophenyl)-6-(4-methylphenyl)-2(aryl)-tetrahydro-2H-pyrazolo[3,4-d]thiazol-5-yl]phenyl]methanes” (2009)
# The source made the active and inactive calls. The rule behind the calls is not given here.
# Assays:
# Type in all cases: functional
# [1] = tested on: Trichophyton mentagrophytes; assay: Antifungal activity against Trichophyton mentagrophytes IFO 40996 assessed as growth inhibition at 37 degC for 48 hr; settings: IFO 40996, 48 h
# [2] = tested on: Trichophyton mentagrophytes; assay: Antifungal activity against Trichophyton mentagrophytes IFO 40996 assessed as growth inhibition at 100 ug/disc at 37 degC for 48 hr; settings: IFO 40996, 48 h, read-out: IZ
# Trichophyton rubrum [3] = assay: Antifungal activity against Trichophyton rubrum IFO 9185 assessed as growth inhibition at 37 degC for 48 hr; settings: IFO 9185, 48 h
# Candida albicans [4] = assay: Antifungal activity against Candida albicans ATCC 10231 assessed as growth inhibition at 37 degC for 48 hr; settings: ATCC 10231, 48 h
# Candida albicans [5] = assay: Antifungal activity against Candida albicans ATCC 10231 assessed as growth inhibition at 100 ug/disk at 37 degC for 48 hr; settings: ATCC 10231, 48 h, read-out: IZ
# Trichophyton rubrum [6] = assay: Antifungal activity against Trichophyton rubrum IFO 9185 assessed as growth inhibition at 100 ug/disk at 37 degC for 48 hr; settings: IFO 9185, 48 h, read-out: IZ
# Aspergillus fumigatus [7] = assay: Antifungal activity against Aspergillus fumigatus HIC 6094 assessed as growth inhibition at 37 degC for 48 hr
# Aspergillus fumigatus [8] = assay: Antifungal activity against Aspergillus fumigatus HIC 6094 assessed as growth inhibition at 100 ug/disc at 37 degC for 48 hr; settings: HIC 6094, 48 h, read-out: IZ
# Pseudomonas aeruginosa [9] = assay: Antibacterial activity against Pseudomonas aeruginosa MTCC 741 assessed as inhibition zones at 100 ug/disk at 37 degC for 24 hr; settings: MTCC 741, 24 h, read-out: IZ
# [10] = tested on: Chromobacterium violaceum; assay: Antibacterial activity against Chromobacterium violaceum MTCC 2656 assessed as inhibition zones at 100 ug/disk at 37 degC for 24 hr; settings: MTCC 2656, 24 h, read-out: IZ
# Klebsiella aerogenes [11] = assay: Antibacterial activity against Enterobacter aerogenes MTCC 39 assessed as growth arrest at 37 degC for 24 hr; settings: MTCC 39, 24 h
# Bacillus subtilis [12] = assay: Antibacterial activity against Bacillus subtilis MTCC 441 assessed as growth arrest at 37 degC for 24 hr; settings: MTCC 441, 24 h
# Klebsiella aerogenes [13] = assay: Antibacterial activity against Enterobacter aerogenes MTCC 39 assessed as inhibition zones at 100 ug/disk at 37 degC for 24 hr; settings: MTCC 39, 24 h, read-out: IZ
# Bacillus subtilis [14] = assay: Antibacterial activity against Bacillus subtilis MTCC 441 assessed as inhibition zones at 100 ug/disk at 37 degC for 24 hr; settings: MTCC 441, 24 h, read-out: IZ
# [15] = tested on: Lysinibacillus sphaericus; assay: Antibacterial activity against Lysinibacillus sphaericus MTCC 11 assessed as growth arrest at 37 degC for 24 hr; settings: MTCC 11, 24 h
# [16] = tested on: Chromobacterium violaceum; assay: Antibacterial activity against Chromobacterium violaceum MTCC 2656 assessed as growth arrest at 37 degC for 24 hr; settings: MTCC 2656, 24 h
# Staphylococcus aureus [17] = assay: Antibacterial activity against Staphylococcus aureus MTCC 96 assessed as inhibition zones at 100 ug/disc at 37 degC for 24 hr; settings: MTCC 96, 24 h, read-out: IZ
# Pseudomonas aeruginosa [18] = assay: Antibacterial activity against Pseudomonas aeruginosa MTCC 741 assessed as growth arrest at 37 degC for 24 hr; settings: MTCC 741, 24 h
# [19] = tested on: Lysinibacillus sphaericus; assay: Antibacterial activity against Lysinibacillus sphaericus MTCC 11 assessed as inhibition zones at 100 ug/disk at 37 degC for 24 hr; settings: MTCC 11, 24 h, read-out: IZ
# Staphylococcus aureus [20] = assay: Antibacterial activity against Staphylococcus aureus MTCC 96 assessed as growth arrest at 37 degC for 24 hr; settings: MTCC 96, 24 h
# Klebsiella aerogenes [21] = assay: Antibacterial activity against Enterobacter aerogenes MTCC 39 assessed as inhibition zones at 300 ug/disk at 37 degC for 24 hr; settings: MTCC 39, 24 h, read-out: IZ
# [22] = tested on: Chromobacterium violaceum; assay: Antibacterial activity against Chromobacterium violaceum MTCC 2656 assessed as inhibition zones at 300 ug/disk at 37 degC for 24 hr; settings: MTCC 2656, 24 h, read-out: IZ
# Pseudomonas aeruginosa [23] = assay: Antibacterial activity against Pseudomonas aeruginosa MTCC 741 assessed as inhibition zones at 300 ug/disk at 37 degC for 24 hr; settings: MTCC 741, 24 h, read-out: IZ
# Aspergillus fumigatus [24] = assay: Antifungal activity against Aspergillus fumigatus HIC 6094 assessed as growth inhibition at 300 ug/disc at 37 degC for 48 hr
# [25] = tested on: Lysinibacillus sphaericus; assay: Antibacterial activity against Lysinibacillus sphaericus MTCC 11 assessed as inhibition zones at 300 ug/disk at 37 degC for 24 hr; settings: MTCC 11, 24 h, read-out: IZ
# [26] = tested on: Ditylenchus myceliophagus; assay: Nematicidal activity against Ditylenchus myceliophagus assessed as immobility; settings: read-out: LD50 (the source's name)
# Trichophyton rubrum [27] = assay: Antifungal activity against Trichophyton rubrum IFO 9185 assessed as growth inhibition at 300 ug/disk at 37 degC for 48 hr
# Candida albicans [28] = assay: Antifungal activity against Candida albicans ATCC 10231 assessed as growth inhibition at 300 ug/disk at 37 degC for 48 hr; settings: ATCC 10231, 48 h, read-out: IZ
# Staphylococcus aureus [29] = assay: Antibacterial activity against Staphylococcus aureus MTCC 96 assessed as inhibition zones at 300 ug/disc at 37 degC for 24 hr; settings: MTCC 96, 24 h, read-out: IZ
# Caenorhabditis elegans = assay: Nematicidal activity against Caenorhabditis elegans assessed as immobility; settings: read-out: LD50 (the source's name)
# Bacillus subtilis [30] = assay: Antibacterial activity against Bacillus subtilis MTCC 441 assessed as inhibition zones at 300 ug/disk at 37 degC for 24 hr; settings: MTCC 441, 24 h, read-out: IZ
# [31] = tested on: Trichophyton mentagrophytes; assay: Antifungal activity against Trichophyton mentagrophytes IFO 40996 assessed as growth inhibition at 300 ug/disc at 37 degC for 48 hr
SMILES,MBC [1] [µg/mL],MIC [1] [µg/mL],MBC (Trichophyton rubrum [3]) [µg/mL],MIC (Trichophyton rubrum [3]) [µg/mL],MBC (Candida albicans [4]) [µg/mL],MIC (Candida albicans [4]) [µg/mL],MBC (Klebsiella aerogenes [11]) [µg/mL],MIC (Klebsiella aerogenes [11]) [µg/mL],MBC (Bacillus subtilis [12]) [µg/mL],MIC (Bacillus subtilis [12]) [µg/mL],MBC [15] [µg/mL],MIC [15] [µg/mL],MBC [16] [µg/mL],MIC [16] [µg/mL],MBC (Pseudomonas aeruginosa [18]) [µg/mL],MIC (Pseudomonas aeruginosa [18]) [µg/mL],MBC (Staphylococcus aureus [20]) [µg/mL],MIC (Staphylococcus aureus [20]) [µg/mL],other results
C[C@@H]1[C@H](O)[C@@H](C)/C=C/C=C/C=C/C=C/C=C/C=C/C=C/[C@H](O[C@@H]2O[C@H](C)[C@@H](O)[C@H](N)[C@@H]2O)C[C@@H]2O[C@](O)(C[C@@H](O)C[C@@H](O)[C@H](O)CC[C@@H](O)C[C@@H](O)CC(=O)O[C@H]1C)C[C@H](O)[C@H]2C(=O)O [AMPHOTERICIN B],12.5,3.12,12.5,3.12,12.5,6.25,,,,,,,,,,,,,"zone of inhibition at 100 µg/disc [2]: 18 mm; zone of inhibition at 100 µg/disc (Candida albicans [5]): 25 mm; zone of inhibition at 100 µg/disc (Trichophyton rubrum [6]): 20 mm; MBC (Aspergillus fumigatus [7]; HIC 6094, 48 h): 6.25 µg/mL; MIC (Aspergillus fumigatus [7]; HIC 6094, 48 h): 3.12 µg/mL; zone of inhibition at 100 µg/disc (Aspergillus fumigatus [8]): 20 mm"
CC1(C)S[C@@H]2[C@H](NC(=O)Cc3ccccc3)C(=O)N2[C@H]1C(=O)O [PENICILLIN G],,,,,,,12.5,6.25,6.25,1.56,25,3.12,12.5,12.5,12.5,6.25,6.25,1.56,zone of inhibition at 100 µg/disc (Pseudomonas aeruginosa [9]): 25 mm; zone of inhibition at 100 µg/disc [10]: 25 mm; zone of inhibition at 100 µg/disc (Klebsiella aerogenes [13]): 30 mm; zone of inhibition at 100 µg/disc (Bacillus subtilis [14]): 25 mm; zone of inhibition at 100 µg/disc (Staphylococcus aureus [17]): 40 mm; zone of inhibition at 100 µg/disc [19]: 28 mm
COc1ccc(N2N=C3C(SC(c4cc(Cc5ccc(OC)c(C6SC7C(=NN(c8ccc(OC)cc8)C7c7ccc(F)cc7)N6c6ccc(Cl)cc6)c5)ccc4OC)N3c3ccc(Cl)cc3)C2c2ccc(F)cc2)cc1 (configuration not stated),50,25,50,25,50,25,25,12.5,12.5,12.5,50,12.5,50,6.25,50,12.5,25,12.5,zone of inhibition at 300 µg/disc (Klebsiella aerogenes [21]): 21 mm; zone of inhibition at 300 µg/disc [22]: 23 mm; zone of inhibition at 300 µg/disc (Pseudomonas aeruginosa [23]): 20 mm; inhibition zone (IZ) (Aspergillus fumigatus [24]): inactive; zone of inhibition at 300 µg/disc [25]: 16 mm; LC50 [26]: 900 µg/mL; inhibition zone (IZ) (Trichophyton rubrum [27]): inactive; zone of inhibition at 300 µg/disc (Candida albicans [28]): 14 mm; zone of inhibition at 300 µg/disc (Staphylococcus aureus [29]): 28 mm; LC50 (Caenorhabditis elegans): 820 µg/mL; zone of inhibition at 300 µg/disc (Bacillus subtilis [30]): 17 mm; inhibition zone (IZ) [31]: inactive; MBC (Aspergillus fumigatus [7]): inactive; MIC (Aspergillus fumigatus [7]): inactive
